According to the Kinase Knowledgebase extract (Sharma et al. 2016):

Target: EGFR (human) (UniProt P00533)
Conditions: hn5

Sequence of EGFR (human) (P00533 whole entry, looked up): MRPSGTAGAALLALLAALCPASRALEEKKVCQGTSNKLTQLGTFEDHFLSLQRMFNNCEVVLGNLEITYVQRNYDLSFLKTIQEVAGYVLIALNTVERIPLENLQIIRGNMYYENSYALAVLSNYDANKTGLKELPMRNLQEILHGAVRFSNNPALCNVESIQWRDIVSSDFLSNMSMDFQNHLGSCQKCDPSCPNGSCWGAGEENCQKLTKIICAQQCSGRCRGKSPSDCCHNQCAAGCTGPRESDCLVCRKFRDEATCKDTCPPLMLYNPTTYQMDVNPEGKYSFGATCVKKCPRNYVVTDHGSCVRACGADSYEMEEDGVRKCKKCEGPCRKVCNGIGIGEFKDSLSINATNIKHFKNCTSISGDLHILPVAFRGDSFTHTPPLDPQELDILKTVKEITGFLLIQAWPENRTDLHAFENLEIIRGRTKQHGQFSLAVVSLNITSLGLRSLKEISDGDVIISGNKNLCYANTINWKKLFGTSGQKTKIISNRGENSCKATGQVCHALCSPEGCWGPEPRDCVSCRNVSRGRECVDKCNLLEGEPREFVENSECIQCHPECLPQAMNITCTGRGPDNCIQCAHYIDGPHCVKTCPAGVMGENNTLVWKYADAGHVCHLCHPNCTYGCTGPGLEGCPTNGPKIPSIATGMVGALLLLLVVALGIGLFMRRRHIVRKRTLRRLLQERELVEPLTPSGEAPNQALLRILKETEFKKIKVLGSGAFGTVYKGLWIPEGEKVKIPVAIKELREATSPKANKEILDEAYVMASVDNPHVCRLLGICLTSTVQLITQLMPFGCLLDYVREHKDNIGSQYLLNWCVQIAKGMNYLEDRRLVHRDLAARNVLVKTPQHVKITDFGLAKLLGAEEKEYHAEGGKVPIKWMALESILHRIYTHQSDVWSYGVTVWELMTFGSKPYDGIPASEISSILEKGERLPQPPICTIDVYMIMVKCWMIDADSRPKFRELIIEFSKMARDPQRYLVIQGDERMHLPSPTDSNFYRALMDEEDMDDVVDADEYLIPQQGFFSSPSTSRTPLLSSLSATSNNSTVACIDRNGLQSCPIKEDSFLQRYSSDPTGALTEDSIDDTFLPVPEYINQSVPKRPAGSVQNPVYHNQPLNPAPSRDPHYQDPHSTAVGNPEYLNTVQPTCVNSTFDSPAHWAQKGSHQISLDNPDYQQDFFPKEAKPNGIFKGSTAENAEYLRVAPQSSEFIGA

`CS(=O)(=O)CCNCc1nc(-c2ccc3ncnc(Nc4ccc5c(cnn5Cc5cccc(F)c5)c4)c3c2)cs1` and `CS(=O)(=O)CCNCc1nc(-c2ccc3ncnc(Nc4ccc5c(cnn5Cc5ccccc5)c4)c3c2)cs1` cannot be ordered by IC50: less than 5 µM for the first, less than 5 µM for the second.

`COc1cc2ncnc(Nc3ccc(OCc4ccccc4)cc3)c2cc1-c1ccc(CNCCS(C)(=O)=O)o1` and `CS(=O)(=O)CCNCc1ccc(-c2cc3c(Nc4ccc(OCc5ccccc5)cc4)ncnc3cc2F)o1` cannot be ordered by IC50: less than 5 µM for the first, less than 5 µM for the second.

`CS(=O)(=O)CCNCc1ccc(-c2ccc3ncnc(Nc4ccc(S(=O)(=O)c5ccccc5)cc4)c3c2)o1` and `CS(=O)(=O)CCNCc1ccc(-c2cc3c(Nc4ccc(S(=O)(=O)c5ccccc5)cc4)ncnc3cn2)o1` cannot be ordered by IC50: less than 5 µM for the first, less than 5 µM for the second.

First: CS(=O)(=O)CCNCc1nc(-c2ccc3ncnc(Nc4ccc(OCc5cccc(F)c5)c(F)c4)c3c2)cs1
Second: COc1cc(Nc2ncnc3ccc(-c4csc(CNCCS(C)(=O)=O)n4)cc23)ccc1OCc1cccc(F)c1
The IC50 of the first is lower: less than 5 µM for the first, 5 to 25 µM for the second.

`CS(=O)(=O)CCNCc1ccc(-c2ccc3ncnc(Nc4ccc(OCc5ccccc5)c(C(F)(F)F)c4)c3c2)o1` and `CS(=O)(=O)CCNCc1ccc(-c2ccc3ncnc(Nc4ccc(OCc5ccccc5)c(F)c4)c3c2)o1` cannot be ordered by IC50: less than 5 µM for the first, less than 5 µM for the second.

`CS(=O)(=O)CCNCc1nc(-c2ccc3ncnc(Nc4ccc(OCc5ccccc5)c(F)c4)c3c2)cs1` and `CS(=O)(=O)CCNCc1nc(-c2ccc3ncnc(Nc4ccc(OCc5ccccc5)cc4)c3c2)cs1` cannot be ordered by IC50: less than 5 µM for the first, less than 5 µM for the second.

First: CS(=O)(=O)CCNCc1ccoc1-c1ccc2ncnc(Nc3ccc(OCc4ccccc4)cc3)c2c1
Second: CS(=O)(=O)CCNCc1coc(-c2ccc3ncnc(Nc4ccc(OCc5ccccc5)cc4)c3c2)c1
The IC50 of the first is higher: 5 to 25 µM for the first, less than 5 µM for the second.

`CS(=O)(=O)CCNCc1ccc(-c2cc3c(Nc4ccc5c(cnn5Cc5ccccc5)c4)ncnc3cc2F)o1` and `COc1cc2ncnc(Nc3ccc4c(cnn4Cc4ccccc4)c3)c2cc1-c1ccc(CNCCS(C)(=O)=O)o1` cannot be ordered by IC50: less than 5 µM for the first, less than 5 µM for the second.

First: CS(=O)(=O)CCNCc1nc(-c2ccc3ncnc(Nc4ccc(S(=O)(=O)c5ccccc5)cc4)c3c2)cs1
Second: CS(=O)(=O)CCNCc1ccc(-c2cc3c(Nc4ccc(S(=O)(=O)c5ccccc5)cc4)ncnc3cc2F)o1
The IC50 of the first is lower: less than 5 µM for the first, 5 to 25 µM for the second.

`CS(=O)(=O)CCNCc1ccc(-c2ccc3ncnc(Nc4ccc(OCc5cccc(Br)c5)cc4)c3c2)o1` and `CS(=O)(=O)CCNCc1ccc(-c2ccc3ncnc(Nc4ccc(OCc5cccc(F)c5)cc4)c3c2)o1` cannot be ordered by IC50: less than 5 µM for the first, less than 5 µM for the second.

`COc1cc(Nc2ncnc3ccc(-c4ccc(CNCCS(C)(=O)=O)o4)cc23)ccc1OCc1cccc(F)c1` and `CS(=O)(=O)CCNCc1ccc(-c2ccc3ncnc(Nc4ccc(OCc5cccc(F)c5)c(F)c4)c3c2)o1` cannot be ordered by IC50: less than 5 µM for the first, less than 5 µM for the second.

`COc1cc2ncnc(Nc3ccc(S(=O)(=O)c4ccccc4)cc3)c2cc1-c1ccc(CNCCS(C)(=O)=O)o1` and `CS(=O)(=O)CCNCc1ccc(-c2ccc3ncnc(Nc4ccc(OCc5ccccc5)c(Cl)c4)c3c2)o1` cannot be ordered by IC50: less than 5 µM for the first, less than 5 µM for the second.

`CS(=O)(=O)CCNCc1nc(-c2ccc3ncnc(Nc4ccc(OCc5cccc(C(F)(F)F)c5)cc4)c3c2)cs1` and `CS(=O)(=O)CCNCc1nc(-c2ccc3ncnc(Nc4ccc(OCc5cccc(F)c5)cc4)c3c2)cs1` cannot be ordered by IC50: less than 5 µM for the first, less than 5 µM for the second.

First: CS(=O)(=O)CCNCc1nc(-c2ccc3ncnc(Nc4ccc(OCc5cccc(Br)c5)cc4)c3c2)cs1
Second: CS(=O)(=O)CCNCc1ccc(-c2ccc3ncnc(Nc4ccc(OCc5cccc(C(F)(F)F)c5)cc4)c3c2)o1
The IC50 of the first is higher: 25 to 50 µM for the first, 5 to 25 µM for the second.

`CS(=O)(=O)CCNCc1ccc(-c2cc3c(Nc4ccc(OCc5ccc(F)cc5)cc4)ncnc3cn2)o1` and `CS(=O)(=O)CCNCc1ccc(-c2cc3c(Nc4ccc(OCc5cccc(F)c5)cc4)ncnc3cn2)o1` cannot be ordered by IC50: less than 5 µM for the first, less than 5 µM for the second.

`CS(=O)(=O)CCNCc1coc(-c2cc3c(Nc4ccc(OCc5cccc(F)c5)cc4)ncnc3cn2)c1` and `CS(=O)(=O)CCNCc1cccc(-c2cc3c(Nc4ccc(OCc5ccccc5)cc4)ncnc3cn2)c1` cannot be ordered by IC50: less than 5 µM for the first, less than 5 µM for the second.
